Reference: patent US20240398812A1 (Caraway Therapeutics, Inc., priority 2021, published 2024)

How the values were obtained:
Type in all cases: cell-based
TRPML2 = biological target: T1, TRPML2 (Homo sapiens, UniProt Q8IZK6); assay: Fluorescent TRPML2 assay (as for TRPML1)
T1 construct: expressed in transfected cells
T1 sequence (Q8IZK6 1-566): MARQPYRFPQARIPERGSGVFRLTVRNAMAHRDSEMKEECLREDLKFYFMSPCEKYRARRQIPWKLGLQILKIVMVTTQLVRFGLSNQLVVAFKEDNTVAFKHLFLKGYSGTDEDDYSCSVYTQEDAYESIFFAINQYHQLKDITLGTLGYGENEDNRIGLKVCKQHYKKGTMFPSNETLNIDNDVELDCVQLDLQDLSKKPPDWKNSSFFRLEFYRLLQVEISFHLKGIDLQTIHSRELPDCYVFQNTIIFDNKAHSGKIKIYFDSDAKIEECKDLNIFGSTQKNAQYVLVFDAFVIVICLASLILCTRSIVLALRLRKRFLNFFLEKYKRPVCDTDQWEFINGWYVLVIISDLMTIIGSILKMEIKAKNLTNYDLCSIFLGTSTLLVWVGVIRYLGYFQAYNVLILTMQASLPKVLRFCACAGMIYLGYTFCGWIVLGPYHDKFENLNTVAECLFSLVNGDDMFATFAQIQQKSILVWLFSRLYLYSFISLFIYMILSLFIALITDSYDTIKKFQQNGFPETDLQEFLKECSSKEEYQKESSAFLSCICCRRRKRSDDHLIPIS
Procedure: HEK-293 Trex cells were stably transfected with a construct consisting of the human coding sequence for TRPML1 cloned into the tet-inducible plasmid pCDNA5 T/O. Mutations were introduced into the TRPML1 sequence to facilitate expression on the cell surface (Silvia Vergarajauregui, Rosa Puertollano Traffic. 2006 March; 7 (3): 337-353). Briefly, the cells are cultured in 150 mm round tissue culture dishes containing 20 mL of media. The day before the assay the cells are rinsed with DPBS —Ca—Mg and then treated briefly with Trypsin-EDTA. The Trypsin-EDTA is diluted with growth media, and cells are counted. 38×10^6 cells are re-plated into 150 mm round tissue culture dishes in media containing 0.5 ug/mL doxycycline to induce expression of hTRPML1.
The day of the experiment cells are lifted from the plates as above and collected by centrifugation. The cells are then suspended in dye loading buffer consisting of Ringer's solution supplemented with 0.1% Pluronic Acid and 1 micromolar Fluo4-AM dye. Cells are loaded for ˜60 minutes in the dark with occasional mixing. The cells are collected by centrifugation, the loading media aspirated, and the cells resuspended in 25 mL Ringer's solution and incubated ˜60 minutes in the dark. The cells are again collected by centrifugation, rinsed in Ringer's Solution and resuspended to 0.2×10^6 cells/mL in modified Ringer's solution containing 10 mM calcium.
Compounds are dissolved to a concentration of 10 millimolar with DMSO. Compound plates are created by dispensing compounds into 384 well black wall clear bottom plates (Greiner 781091). Positive and negative controls are included on each plate. Typically, different amounts of each compound are tested ranging from 100 nanoMoles (20 micromolar final concentration) decreasing in half-log steps to 31 picoMoles (6 nanomolar final concentration). Each concentration is typically tested in triplicate.
50 microliters of dye-loaded cells are dispensed into each well of the compound assay plate created above. The fluorescence in each well is then determined with an excitation wavelength of 480 nm and an emission wavelength of 540 nm using either a Molecular Devices SpectraMax multimode plate reader or a Hamamatsu FDSS/uCell plate imager.
The resulting fluorescence for each well is exported as an ascii file and loaded into our LIMS for analysis. The percent activity of each compound at each concentration is determined by comparison to the positive and negative control wells included in each plate.
Assays for TRPML2 and TRPML3 were performed as above for TRPML1, by substituting the appropriate TRPML2 or TRPML3 subtype for the TRPML1.
EC50 values were calculated using a non-linear regression of Prism. In the table, “A” indicates an EC50 of less than 100 nM, “B” indicates an EC50 range from 100 nM to 500 nM; “C” indicates an EC50 range from 500 nM to 2 μM; and “D” indicates an EC50 greater than 2 μM.

human TRPML1 = human TRPML1 (Homo sapiens, UniProt Q9GZU1); assay: Fluorescent TRPML1 assay (Fluo4-AM calcium fluorescence, HEK-293 Trex cells)
Sequence of human TRPML1 (Q9GZU1 whole entry L15A/L16A/L577A/L578A, form open): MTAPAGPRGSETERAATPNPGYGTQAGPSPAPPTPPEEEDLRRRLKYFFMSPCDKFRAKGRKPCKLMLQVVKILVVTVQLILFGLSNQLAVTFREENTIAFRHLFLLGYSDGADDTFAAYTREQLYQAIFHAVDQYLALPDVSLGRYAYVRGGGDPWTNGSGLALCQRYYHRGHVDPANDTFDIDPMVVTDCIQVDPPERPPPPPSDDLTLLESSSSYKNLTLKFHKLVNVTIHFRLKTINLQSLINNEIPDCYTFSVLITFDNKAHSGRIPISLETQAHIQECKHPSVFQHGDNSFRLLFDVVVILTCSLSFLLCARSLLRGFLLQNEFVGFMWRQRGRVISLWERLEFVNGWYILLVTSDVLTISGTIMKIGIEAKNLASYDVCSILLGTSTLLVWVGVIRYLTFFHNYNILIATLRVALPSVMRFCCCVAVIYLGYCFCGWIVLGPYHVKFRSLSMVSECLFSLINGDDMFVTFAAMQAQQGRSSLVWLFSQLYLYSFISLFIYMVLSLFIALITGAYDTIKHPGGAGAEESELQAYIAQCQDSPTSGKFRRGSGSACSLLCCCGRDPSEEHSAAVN
In short: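 Tet-inducible HEK-293 Trex cells stably expressing surface-targeted mutant human TRPML1, induced with 0.5 ug/mL doxycycline overnight, loaded with Fluo4-AM and suspended in Ringer's with 10 mM calcium. Compounds tested from 20 μM to 6 nM final, half-log steps, in triplicate; fluorescence (ex 480/em 540) normalised to plate controls, EC50 by non-linear regression.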

TRPML3 = biological target: T2, TRPML3 (Homo sapiens, UniProt Q8TDD5); assay: Fluorescent TRPML3 assay (as for TRPML1)
T2 construct: expressed in transfected cells
T2 sequence (Q8TDD5 1-553): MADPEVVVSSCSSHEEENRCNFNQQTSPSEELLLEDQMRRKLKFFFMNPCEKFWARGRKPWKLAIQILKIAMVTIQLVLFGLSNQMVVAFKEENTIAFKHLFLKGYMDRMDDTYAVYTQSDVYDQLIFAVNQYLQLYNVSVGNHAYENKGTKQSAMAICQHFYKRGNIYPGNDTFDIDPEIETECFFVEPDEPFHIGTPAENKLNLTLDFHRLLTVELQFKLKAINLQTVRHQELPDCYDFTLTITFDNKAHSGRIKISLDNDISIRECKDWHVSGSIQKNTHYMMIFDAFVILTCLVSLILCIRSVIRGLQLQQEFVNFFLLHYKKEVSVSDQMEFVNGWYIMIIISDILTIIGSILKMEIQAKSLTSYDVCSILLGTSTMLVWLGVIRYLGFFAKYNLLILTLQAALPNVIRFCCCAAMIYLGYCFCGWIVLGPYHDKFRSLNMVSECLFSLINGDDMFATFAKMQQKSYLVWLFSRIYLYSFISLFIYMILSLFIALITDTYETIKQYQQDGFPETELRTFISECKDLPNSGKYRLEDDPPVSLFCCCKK
In short: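 HEK-293 Trex cells with tet-inducible (0.5 ug/mL doxycycline, overnight) surface-targeted mutant channel, Fluo4-AM loaded, suspended in Ringer's with 10 mM calcium. Compounds tested 20 µM to 6 nM final, half-log steps, triplicate; fluorescence at ex 480/em 540 nm. EC50 by non-linear regression of percent activity versus plate controls.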

EC50 (TRPML2; Table 3, compounds 101-177) [nM] | EC50 (human TRPML1; Table 3, compounds 101-177) [nM] | EC50 (TRPML3; Table 3, compounds 101-177) [nM] | EC50 (TRPML2; Table 3, compounds 201-283) [nM] | EC50 (human TRPML1; Table 3, compounds 201-283) [nM] | EC50 (TRPML3; Table 3, compounds 201-283) [nM] | SMILES
500 to 2000 | 100 to 500 | 100 to 500 |  |  |  | CC(C)C(=O)N1CCN(c2ncnc3c2c(-c2ccccc2F)cn3-c2cc(C#N)n(C)n2)[C@@H](C)C1 [Compound 146, (S)-3-(5-(2-fluorophenyl)-4-(4-isobutyryl-2-methylpiperazin-1-yl)-7H-pyrrolo[2,3-d]pyrimidin-7-yl)-1-methyl-1H-pyrazole-5-carbonitrile]
 |  |  | > 2000 | 500 to 2000 | 500 to 2000 | C[C@@H]1CN(c2ncnc3c2c(C2CCC2)cn3-c2cc(F)cc(F)c2)[C@@H](C)CN1C(=O)C(C)(C)C [Compound 255, 1-((2R,5S)-4-(5-cyclobutyl-7-(3,5-difluorophenyl)-7H-pyrrolo[2,3-d]pyrimidin-4-yl)-2,5-dimethylpiperazin-1-yl)-2,2-dimethylpropan-1-one]
100 to 500 | < 100 | 100 to 500 |  |  |  | C[C@@H]1CN(c2ncnc3c2c(C2CC2)cn3-c2cc(C#N)ccn2)CCN1C(=O)C(C)(C)C [Compound 122, (R)-2-(5-cyclopropyl-4-(3-methyl-4-pivaloylpiperazin-1-yl)-7H-pyrrolo[2,3-d]pyrimidin-7-yl)isonicotinonitrile]
< 100 | < 100 | < 100 |  |  |  | C[C@H]1CN(C(=O)C(C)(C)C)CCN1c1ncnc2c1c(-c1ccccc1F)cn2-c1cc(C#N)ccn1 [Compound 103, (S)-2-(5-(2-fluorophenyl)-4-(2-methyl-4-pivaloylpiperazin-1-yl)-7H-pyrrolo[2,3-d]pyrimidin-7-yl)isonicotinonitrile]
 |  |  | 500 to 2000 | < 100 | 100 to 500 | C[C@@H]1CN(c2ncnc3c2c(C2CCC2)cn3-c2cccc(Cl)c2)[C@@H](C)CN1C(=O)C(C)(C)C [Compound 253, 1-((2R,5S)-4-(7-(3-chlorophenyl)-5-cyclobutyl-7H-pyrrolo[2,3-d]pyrimidin-4-yl)-2,5-dimethylpiperazin-1-yl)-2,2-dimethylpropan-1-one]
 |  |  | 100 to 500 | < 100 | 500 to 2000 | C[C@@H]1CN(c2ncnc3c2c(C2CCC2)cn3-c2cccc(Cl)c2)[C@@H](C)CN1C(=O)C(C)(C)C(F)(F)F [Compound 257, 1-((2R,5S)-4-(7-(3-chlorophenyl)-5-cyclobutyl-7H-pyrrolo[2,3-d]pyrimidin-4-yl)-2,5-dimethylpiperazin-1-yl)-3,3,3-trifluoro-2,2-dimethylpropan-1-one]
 |  |  | 100 to 500 | 100 to 500 | < 100 | C[C@@H]1CN(c2ncnc3c2c(C2CCC2)cn3-c2cc(C#N)ccn2)[C@@H](C)CN1C(=O)C(C)(C)C(F)(F)F [Compound 240, 2-(5-cyclobutyl-4-((2S,5R)-2,5-dimethyl-4-(3,3,3-trifluoro-2,2-dimethylpropanoyl)piperazin-1-yl)-7H-pyrrolo[2,3-d]pyrimidin-7-yl)isonicotinonitrile]
 |  |  | 100 to 500 | < 100 | < 100 | C[C@@H]1CN(c2ncnc3c2c(C2CC2)cn3-c2cccc(Cl)c2)[C@@H](C)CN1C(=O)C(C)(C)C [Compound 206, 1-((2R,5S)-4-(7-(3-chlorophenyl)-5-cyclopropyl-7H-pyrrolo[2,3-d]pyrimidin-4-yl)-2,5-dimethylpiperazin-1-yl)-2,2-dimethylpropan-1-one]
 |  |  | 100 to 500 | < 100 | < 100 | C[C@@H]1CN(c2ncnc3c2c(C(F)(F)F)cn3-c2cccc(Cl)c2)[C@@H](C)CN1C(=O)C(C)(C)C [Compound 204, 1-((2R,5S)-4-(7-(3-chlorophenyl)-5-(trifluoromethyl)-7H-pyrrolo[2,3-d]pyrimidin-4-yl)-2,5-dimethylpiperazin-1-yl)-2,2-dimethylpropan-1-one]
< 100 | < 100 | < 100 |  |  |  | C[C@H]1CN(C(=O)C2(C)CC2)CCN1c1ncnc2c1c(-c1ccccc1)cn2-c1cc(C#N)ccn1 [Compound 128, (S)-2-(4-(2-methyl-4-(1-methylcyclopropane-1-carbonyl)piperazin-1-yl)-5-phenyl-7H-pyrrolo[2,3-d]pyrimidin-7-yl)isonicotinonitrile]
 |  |  | 500 to 2000 | 100 to 500 | 500 to 2000 | C[C@@H]1CN(c2ncnc3c2c(C2CCC2)cn3-c2cccc(C(F)(F)F)c2)[C@@H](C)CN1C(=O)CC(C)(C)C(F)(F)F [Compound 262, 1-((2R,5S)-4-(5-cyclobutyl-7-(3-(trifluoromethyl)phenyl)-7H-pyrrolo[2,3-d]pyrimidin-4-yl)-2,5-dimethylpiperazin-1-yl)-4,4,4-trifluoro-3,3-dimethylbutan-1-one]
< 100 | < 100 | < 100 |  |  |  | CC(C)C(=O)N1CCN(c2ncnc3c2c(-c2ccccc2F)cn3-c2cc(C#N)ccn2)C(C)(C)C1 [Compound 149, 2-(5-(2-fluorophenyl)-4-(4-isobutyryl-2,2-dimethylpiperazin-1-yl)-7H-pyrrolo[2,3-d]pyrimidin-7-yl)isonicotinonitrile]
 |  |  | 100 to 500 | 500 to 2000 | 100 to 500 | CC(C)C(=O)N1C[C@@H](C)N(c2ncnc3c2c(-c2ccccc2F)cn3-c2cc(C#N)ccn2)C[C@@H]1C [Compound 201, 2-(5-(2-fluorophenyl)-4-((2R,5S)-4-isobutyryl-2,5-dimethylpiperazin-1-yl)-7H-pyrrolo[2,3-d]pyrimidin-7-yl)isonicotinonitrile]
100 to 500 | < 100 | < 100 |  |  |  | C[C@H]1CN(C(=O)CC(C)(C)C)CCN1c1ncnc2c1c(-c1ccccc1F)cn2-c1cc(C#N)ccn1 [Compound 133, (S)-2-(4-(4-(3,3-dimethylbutanoyl)-2-methylpiperazin-1-yl)-5-(2-fluorophenyl)-7H-pyrrolo[2,3-d]pyrimidin-7-yl)isonicotinonitrile]
